Assay: Inhibition of microtubule polymerisation in Rattus norvegicus (rat) A10 cells

EC50	SMILES
2.9 µM	COc1cc(OC)c(C2C=C(c3cc(OC)ccc3OC)NC(=S)N2)c(OC)c1 (configuration not stated)
4.4 µM	COc1ccc(C2C=C(c3cc(OC)c(OC)c(OC)c3)NC(=S)N2)cc1O (configuration not stated)
